# Where “and” joins values, the source holds several entries; their conditions need not be identical. Equal values may be shown once.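 Exposure lasted 48 hours, with cells grown in 96-well plates and compounds tested at five concentrations. GI50 marks 50% less growth. Definition used: TGI = concentration required for complete inhibition of growth.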
# Legend:
# Assay in all cases: inhibition of tumour cell growth, NCI panel, 48 h
# [1] = system: UACC-62 melanoma
# [2] = system: CCRF-CEM leukemia
# [3] = system: OVCAR-4 ovarian
# [4] = system: HT29 colon
# [5] = system: NCI/ADR-RES ovarian
# [6] = system: SNB-75 CNS
# [7] = system: BT-549 breast
# [8] = system: HL-60(TB) leukemia
# [9] = system: M14 melanoma
# [10] = system: NCI-H522 lung
SMILES,GI50 [1] [µM],TGI [1] [µM],GI50 [2] [µM],TGI [2],GI50 [3],TGI [3] [µM],GI50 [4],TGI [4] [µM],GI50 [5],TGI [5] [µM],GI50 [6] [µM],TGI [6] [µM],GI50 [7] [µM],TGI [7] [µM],GI50 [8] [µM],TGI [8],GI50 [9],TGI [9] [µM],GI50 [10],TGI [10] [µM]
COc1cccc(CC(C)=C(c2ccc(OCCN3CCCCC3)cc2)c2ccc(OCCN3CCCCC3)cc2)c1,2.1,4.17,1.71,4.73 µM,1.95 µM,4.03,0.82 µM,2.79,2.1 µM,4.34,1.77,3.83,1.93,3.82,1.78,4.12 µM,1.67 µM,3.76,2.16 µM,4.53
Cc1cc2c(cc1Cl)S/C(=C/C(=O)O)C(Nc1ccc3ncsc3c1)=NS2(=O)=O,33.5,> 57.7,7.22,> 53.5 µM,> 34.3 µM,> 54.5,19.4 µM,> 100,> 18.1 µM,> 34.7,> 100,> 100,7.12,29,9.16,> 100 µM,12.7 µM,> 38.1,13 µM,> 67.6
O=C(Nc1cccc(O)c1)c1ccc(NC2=C(Cl)C(=O)N(Cc3ccc(Cl)cc3Cl)C2=O)cc1,5.31,9.96,0.244,0.95 µM,5.43 µM,12.7,2.75 µM,> 22.1,21.6 µM,48.1,2.77,11.2,5.7,12.2,,3.75 µM,8.29 µM,> 55.9,1.94 µM,4.24
CC1(C)CNc2cc(NC(=O)c3cccnc3NCc3ccncc3)ccc21,12.9,48.4,23.7,> 100 µM,18 µM,> 100,32.2 µM,> 100,25.1 µM,> 100,1.87,> 100,25.2,98.2,28,81.5 µM,20.2 µM,88.6,25.7 µM,> 95.4
CCN(Cc1ccccc1)C1CCN(Cc2cc(Br)ccc2O)CC1,26.6,> 100,39.3,> 100 µM,33.7 µM,> 100,20.1 µM,> 100,31.9 µM,> 100,27.5,> 100,44.4,> 100,31.3,98.8 µM,20.7 µM,54.5,17 µM,40.3
CCc1ccc(CCC(=O)Nc2ncc(Cc3ccc(Cl)cc3)s2)o1,0.491,> 100,0.352,> 100 µM,> 100 µM,> 100,0.367 µM,> 100,0.335 µM,> 75.3,0.195,0.771,2.12,> 100,0.289,1.93 µM,0.271 µM,,0.302 µM,53.9
COc1ccc(CN2c3ccccc3Sc3ccccc32)c(C(F)(F)F)c1,0.917,> 100,0.454,26.5 µM,2.17 µM,> 100,0.681 µM,10.9,0.462 µM,3.16,0.241,> 100,3.12,31.9,0.412,13.9 µM,0.446 µM,> 100,0.314 µM,2.84
Nc1nc([Se])c2ncn(C3OC(CO)C(O)C3O)c2n1 (stereo not given),4.16,> 100,2.28,> 100 µM,27.4 µM,> 100,4.29 µM,82.9,5.57 µM,> 100,> 100,> 100,30.6,> 100,4.49,> 100 µM,4.28 µM,> 100,42.5 µM,> 100
COc1cc(/C=C/C(=O)/C=C/c2ccc(-n3ccnc3C)cc2)ccc1O,4.49,21.3,4.07,> 100 µM,8.87 µM,> 100,1.95 µM,3.9,14.5 µM,> 100,9.61,> 100,1.97,4.82,3.26,32.5 µM,2.25 µM,5.94,5.26 µM,24.9
CC(C)(C)C1CCC2c3c([nH]c4ccccc34)C3C(=O)N(c4ccc(Cl)cc4)C(=O)C3C2C1 (stereo not given),> 100,> 100,,47.3 µM and > 10 µM,59.5 µM and > 10 µM,> 100,34.5 µM and > 10 µM,> 100,51.3 µM and > 10 µM,> 100,> 100,> 100,,> 100,,38.8 µM and > 10 µM,54.3 µM and > 10 µM,> 100,60.8 µM and > 10 µM,> 100
CCC(C)[C@H](NC(=O)Nc1cc(C(F)(F)F)cc(C(F)(F)F)c1)C(=O)N[C@@H](Cc1cn(C)cn1)C(=O)OC (stereo not given in full),1.11,1.86,0.0146,1.45 µM,0.599 µM,1.12,0.711 µM,1.4,3.78 µM,5.57,0.924,1.82,0.698,1.68,1.35,3.22 µM,1.11 µM,1.98,0.584 µM,1.15

# Reference: PubChem BioAssay (NCI)
